# Laboratory results from patent US7714006B1, “Methods of modifying the bioavailability of metaxalone” (King Pharmaceuticals Research & Development, Inc., priority 2001, dated 2010).
# Tests used:
# [1] = Effects of age and gender on PK parameters, 1×800 mg data from study 103 and 2×400 mg data from study 105, fed and fasted; type: in vivo, human; details: 1×800 mg (103) + 2×400 mg (105)
# Method: (§1) The report is based primarily on two similarly designed studies in which PK parameters were determined under fed and fasted conditions for the 2×400 mg dose of metaxalone: • Study AN151607-103 (hereafter referred to as the 103 study): a four-period, randomized crossover trial with treatment conditions 2×400 mg with food, 2×400 mg without food, 1×800 mg with food, 1×800 mg without food; and • Study ELN151607-105 (hereafter referred to as the 105 study): a two-period, randomized crossover trial with treatment conditions 2×400 mg with food and 2×400 mg without food.
# These analyses are still based on the combined group of n=103 subjects (59 from study 103, 44 from study 105). However, the fed and fasted PK values from the 1×800 dosage of study 103 are used instead of the data from the 2×400 dosage.
# It is possible to somewhat independently assess the consistency of the results from Sections 3.2 and 3.3 by repeating the analyses using the 1×800 fed and fasted results from study 103. These analyses are still based on the combined group of n=103 subjects (59 from study 103, 44 from study 105). However, the fed and fasted PK values from the 1×800 dosage of study 103 are used instead of the data from the 2×400 dosage.
# The same regression modeling strategy as was described in Sections 3.2 and 3.3 was also used. […] The parameter estimates, standard errors, and p-values for the gender and age effects are shown below for the fed and fasted conditions in TABLE XIb: […]
# [2] = Effects of age and gender on PK parameters, 2×400 mg data from studies 103 and 105, fed and fasted; details: human, in vivo
# Excerpt: This analysis considers the effects of age and gender on three pharmacokinetic (PK) parameters of metaxalone under fed and fasted conditions. The three parameters are: • Cmax: the observed maximum plasma concentration (ng/mL); • AUC(last): the area under the curve (AUC) to the last quantifiable concentration, as measured by the trapezoidal rule (ng-hr/mL); • AUC(inf): the AUC extrapolated to infinity (ng-hr/mL).
# Because the distributions of these parameters tend to be skewed, and in accordance with generally accepted practice, all analyses are carried out after computing the natural logarithm (ln) of the values of the PK parameters from individual subjects.
# as §1
# Using the 2×400 mg data from studies 103 and 105, Section 2.2 presents the results of analyses of the effects of age on the fed values of Cmax, AUC(last), and AUC(inf). Section 2.3 similarly reports the results of analyses of fasted values of these parameters using the 2×400 mg data from these two studies. Section 2.4 repeats the analyses of Sections 2.2 and 2.3 using the data from the 1×800 mg treatment of study 103, in combination with the 2×400 mg data from study 105. Finally, Sections 2.5 and 2.6 report the results of similar analyses using the data from studies 101 and 106, respectively.
# The primary results are based on the results of linear regression models investigating the effects of age on each PK parameter. Descriptive analyses reporting parametric (Pearson) and nonparametric (Spearman) correlation coefficients between age and each PK parameter are also provided. The Pearson correlation coefficient measures the extent of the linear association between two variables and is most appropriate when the data are approximately bivariate normally distributed with no outliers. The Spearman correlation coefficient is based on the ranks of the variables. It is less sensitive to outliers, but is often also a less sensitive measure of the strength of association.
# In study 103, 59 subjects were administered the 2×400 mg dose under fed conditions. The mean age was 26.1 years, with a range from 18 to 50 years. (A total of 64 subjects began the study, of which the average age was 25.6 years. Five subjects were not included in the pharmacokinetic analysis.) In study 105, 44 subjects were administered the 2×400 mg dose under fed conditions. The mean age in study 105 was 56.0 years; with a range from 18 to 81 years.
# First, in the combined group of 59+44=103 subjects, Pearson and Spearman correlation coefficients between age and each of the three PK parameters were computed. The correlation coefficients and two-sided p-values from the test of the null hypothesis of no association are shown below in TABLE IIIa:
# Linear regression models using the natural logarithm of each of the three PK parameters as the dependent variable and age as the independent variable were fitted in order to estimate the magnitude of the associations with age.
# In study 103, the same 59 subjects were administered the 2×400 mg dose under fasted conditions. Similarly, the 44 subjects from study 105 were administered the 2×400 mg dose under fasted conditions.
# First, in the combined group of n=103 subjects, Pearson and Spearman correlations between age and each of the three PK parameters were computed. The correlation coefficients and two-sided p-values from the test of the null hypothesis of no association are shown below in TABLE IVa: […]
smiles,measurement,setting,value
"Cc1cc(C)cc(OCC2CNC(=O)O2)c1 (stereo not drawn) [metaxalone, 5-[(3,5-dimethylphenoxy)methyl]-2 oxazolidinone]",Variability of the fasted PK parameters explained by age,[1]; fasted,more than 25%
same,"Pearson correlation, age vs ln(AUC(inf))","[1]; fasted, n=103",0.513
same,"Pearson correlation, age vs ln(AUC(last))","[1]; fasted, n=103",0.522
same,"Pearson correlation, age vs ln(Cmax)","[1]; fasted, n=103",0.600
same,"Spearman correlation, age vs ln(AUC(inf))","[1]; fasted, n=103",0.514
same,"Spearman correlation, age vs ln(AUC(last))","[1]; fasted, n=103",0.522
same,"Spearman correlation, age vs ln(Cmax)","[1]; fasted, n=103",0.635
same,"Pearson correlation, age vs ln(AUC(inf))","[1]; fasted, females n=42",0.582
same,"Pearson correlation, age vs ln(AUC(last))","[1]; fasted, females n=42",0.596
same,"Pearson correlation, age vs ln(Cmax)","[1]; fasted, females n=42",0.607
same,"Spearman correlation, age vs ln(AUC(inf))","[1]; fasted, females n=42",0.596
same,"Spearman correlation, age vs ln(AUC(last))","[1]; fasted, females n=42",0.601
same,"Spearman correlation, age vs ln(Cmax)","[1]; fasted, females n=42",0.638
same,"Pearson correlation, age vs ln(AUC(inf))","[1]; fasted, males n=61",0.441
same,"Pearson correlation, age vs ln(AUC(last))","[1]; fasted, males n=61",0.447
same,"Pearson correlation, age vs ln(Cmax)","[1]; fasted, males n=61",0.567
same,"Spearman correlation, age vs ln(AUC(inf))","[1]; fasted, males n=61",0.499
same,"Spearman correlation, age vs ln(AUC(last))","[1]; fasted, males n=61",0.501
same,"Spearman correlation, age vs ln(Cmax)","[1]; fasted, males n=61",0.599
same,Variability of the fed PK parameters explained by age,[1]; fed,≤ 5%
same,"Pearson correlation, age vs ln(AUC(inf))","[1]; fed, n=103",0.237
same,"Pearson correlation, age vs ln(AUC(last))","[1]; fed, n=103",0.229
same,"Pearson correlation, age vs ln(Cmax)","[1]; fed, n=103",0.040
same,"Spearman correlation, age vs ln(AUC(inf))","[1]; fed, n=103",0.281
same,"Spearman correlation, age vs ln(AUC(last))","[1]; fed, n=103",0.276
same,"Spearman correlation, age vs ln(Cmax)","[1]; fed, n=103",0.086
same,"Pearson correlation, age vs ln(AUC(inf))","[1]; fed, females n=42",0.436
same,"Pearson correlation, age vs ln(AUC(last))","[1]; fed, females n=42",0.408
same,"Pearson correlation, age vs ln(Cmax)","[1]; fed, females n=42",0.258
same,"Spearman correlation, age vs ln(AUC(inf))","[1]; fed, females n=42",0.432
same,"Spearman correlation, age vs ln(AUC(last))","[1]; fed, females n=42",0.410
same,"Spearman correlation, age vs ln(Cmax)","[1]; fed, females n=42",0.202
same,"Pearson correlation, age vs ln(AUC(inf))","[1]; fed, males n=61",0.023
same,"Pearson correlation, age vs ln(AUC(last))","[1]; fed, males n=61",0.022
same,"Pearson correlation, age vs ln(Cmax)","[1]; fed, males n=61",−0.170
same,"Spearman correlation, age vs ln(AUC(inf))","[1]; fed, males n=61",0.187
same,"Spearman correlation, age vs ln(AUC(last))","[1]; fed, males n=61",0.188
same,"Spearman correlation, age vs ln(Cmax)","[1]; fed, males n=61",−0.001
same,Percentage increase in AUC(inf) from age 20 to age 70,[2]; both,74%
same,"Percentage increase in AUC(inf), 70-year-old vs 20-year-old",[2]; both,95%
same,Percentage increase in AUC(last) from age 20 to age 70,[2]; both,78%
same,"Percentage increase in AUC(last), 70-year-old vs 20-year-old",[2]; both,98%
same,Percentage increase in Cmax from age 20 to age 70,[2]; both,84%
same,"Percentage increase in Cmax, 70-year-old vs 20-year-old",[2]; both,103%
same,"Pearson correlation coefficients age vs PK parameters, range in magnitude",[2]; female,0.49-0.60
